According to patent publication US11007206B2, “Cyclic boronic acid ester derivatives and therapeutic uses thereof” (Melinta Subsidiary Corp., priority 2012, dated 2021):

Legend:
[1] = Plasma pharmacokinetics of Compound I and Biapenem alone or in combination after 1.5 hour intravenous infusion in Sprague-Dawley rats (Example 3); format: in vivo; details: Sprague-Dawley rats; for AUC / clearance / half-life: male, Sprague-Dawley, rat, plasma, iv, 20 mg/kg, 1.5 hour intravenous infusion
Method: Example 3 provides a summary of the pharmacokinetic studies of Compound I alone or in combination with Biapenem following a single intravenous infusion dose in Sprague-Dawley rats. The pharmacokinetics of 20 mg/kg of Compound I, 20 mg/kg of Biapenem, and 20 mg/kg of Compound I in combination with 20 mg/kg of Biapenem after a 1.5 hour intravenous infusion were discussed.
Biapenem power was purchased from Hisun Pharmaceuticals. Compound I was prepared using the method described in the U.S. Publication 2012/0040932 A1. 20 mg of biapenem was dissolved in 0.1 M NaH2PO4 for a basic stock solution. 100 mg of Compound I was dissolved in 30% 1N NaOH to ˜pH 5.0. For animal studies, these stock solutions were further diluted in 0.9% saline to the appropriate concentration.
The specifications for animals used on this study were as follows: • Species: Rat • Strain: Sprague-Dawley • Gender: Male • Source: Charles River (Hollister, Calif.) • Number of Animals: 3 per study • Body Weight Range: 230-280 g at the start of the study
After acclimation, rats (n=3) were administered single 20 mg/kg intravenous infusion doses of Compound I or Biapenem alone or in combination. Doses were infused over 1.5 hours via an indwelling femoral vein cannula. Plasma (˜0.3 mL) samples were collected from each rat at designated time points up to 24 hours. The time points are shown in section 2.9. Blood samples were centrifuged within 5 min of collection at 12000 g for 5 min to obtain plasma. The plasma samples were stored on −80° C. until analyzed.
Compound I standard curves were prepared in rat plasma from 0.1 to 100 μg/mL. 50 μl aliquots of sample were placed in 1.5 mL microcentrifuge tubes. 20 μl of Compound II (10 μg/mL) was added as internal standard to each sample or standard. 20 μl of 30% trichloroacetic acid was then added to each sample or standard. The samples were mixed using a vortex mixer centrifuged for 10 min at 15,000 RPM using a tabletop centrifuge. The supernatant (approx. 120 μl) was removed and added to 100 μl of water in a 96-well plate. The samples were mixed again using a vortex mixer. 10 μl of each sample was injected onto an HPLC-MS for quantification.
The HPLC-MS conditions for Compound I analysis are as follows: • Column: Phenomenex Fusion-RP or equivalent reversed-phase column, 5 um, 50×2 mm. • Flow rate: 0.6 mL/min. • Mobile phase A: 0.1% formic acid in water. • Mobile phase B: 0.1% formic acid in acetonitrile. • Gradient: 5-60% B in 1.5 min. • Mass spectrometer: Negative ion mode with electrospray ionization. • MS/MS: Compound I-Q1-m/e=296, Q3-m/e=234. • Compound II-Q1-m/e=331, Q3-m/e=201.
Biapenem standard curves were prepared in 50% plasma-50% 1M MOPS buffer, pH=7.4 from 1 to 250 ug/mL. 20 uL of sample or standard was added into a 96-well deep well plate. Then 500 uL of 10% water-45% methanol-45% acetonitrile containing 2 ug/mL of meropenem was used as an internal standard. The plate was vortexed for 15 min. at 3,000 RPM. 50 uL of supernatant was removed and added 300 uL of water. 10 uL of samples were injected onto an HPLC-MS system for quantification.
The HPLC-MS conditions for Biaphenem analysis are as follows: • Column: Supelco Discovery HS F5 or equivalent pentafluorophenyl column, 5 um, 50×2.1 mm. • Flow rate: 0.6 mL/min. • Mobile phase A: 0.1% formic acid in water. • Mobile phase B: 0.1% formic acid in acetonitrile. • Gradient: 5-70% B in 1.9 min. • Mass spectrometer: Positive ion mode with electrospray ionization. • MS/MS: Biapenem-Q1-m/e=350.8, Q3-m/e=110.1. • meropenem-Q1-m/e=384.1, Q3-m/e=141.1
Plasma concentrations were fit using a two compartment IV infusion model (WinNonlinVersion 5.3, Pharsight Corp, Mountain View, Calif.).

P. aeruginosa = test: Potency of Biapenem with or without Compound I against P. aeruginosa (Example 4); format: cell-based; details: P. aeruginosa
[2] = Single-dose pharmacokinetics of Compound I, intravenous 30-minute infusion in Sprague-Dawley rats (Example 5); format: in vivo; details: Rat; for AUC / Cmax / half-life: Sprague-Dawley, in vivo
Method: (§1) Example 5 provides the single-dose pharmacokinetic studies of Compound I inpreclinical species, including intraperitoneal administration to Swiss-Webster mice and intravaneous administration to Sprague-Dawley rats, Beagle dogs, and Cynomologus monkeys.
(§2) Intravaneous doses of Compound I were administered as 30-minute infusions. The pharmacokinetics of Compound I were also studied with coadministration of the carbapenem, Biapenem. Compound I concentrations were determined using an LC-MS detection method.

[3] = Single-dose pharmacokinetics of Compound I, intravenous 30-minute infusion in Beagle dogs (Example 5); format: in vivo; details: Dog; for AUC / Cmax / half-life: Beagle, in vivo
Method: as §1, §2

[4] = 20 mg/kg Compound I in combination with 20 mg/kg Biapenem

## O=C(O)C[C@@H]1CC[C@H](NC(=O)Cc2cccs2)B(O)O1 [Compound I]
[1]; single intravenous infusion
  Plasma pharmacokinetic parameters, alone versus in combination: unchanged
[1]; [4]
  AUC: 10400 ± 1150 ng·h/mL
  clearance: 32.5 mL/min/kg
  half-life: 23.4 ± 6.6 min
[1]; administered alone
  AUC: 11000 ± 860 ng·h/mL
  clearance: 33 mL/min/kg
  half-life: 43.2 ± 9 min
P. aeruginosa
  Enhancement of Biapenem potency by the addition of Compound I: no enhancement
[2]; 20 mg/kg IV
  CL or CL/F: 28.3 ± 1 mL/min/kg
  AUC: 12200 ± 430 ng·h/mL
  Cmax: 19800 ± 840 ng/mL
  half-life: 96 ± 10.2 min
[2]; 50 mg/kg IV
  AUC: 28200 ± 2000 ng·h/mL
  Cmax: 45900 ± 2000 ng/mL
  half-life: 270 ± 80.4 min
[3]; 2 mg/kg IV
  AUC: 6130 ± 650 ng·h/mL
  Cmax: 6490 ± 310 ng/mL
  half-life: 39.6 ± 3.6 min
  CL or CL/F: 5.5 ± 0.5 mL/min/kg
[3]; 6 mg/kg IV
  AUC: 18400 ± 2360 ng·h/mL
  Cmax: 19600 ± 1420 ng/mL
  half-life: 42.6 ± 5.4 min
  CL or CL/F: 5.5 ± 0.67 mL/min/kg
[3]; 20 mg/kg IV
  AUC: 73600 ± 5380 ng·h/mL
  Cmax: 66800 ± 6160 ng/mL
  half-life: 91.8 ± 43.8 min
  CL or CL/F: 4.5 ± 0.33 mL/min/kg
